Literature values in patent US5922837A, “Antiprotozoal cyclic tetrapeptides” (Merck & Co., Inc., priority 1997, dated 1999).

Columns and labels:
[1] = test system: sis-transformed fibroblast cells
[2] = test system: mammalian histone deacetylase
[3] = test system: murine erythroleukemia cells
[4] = test system: partially purified yeast histone deacetylase
[5] = test system: v-sis-transformed NIH3T3 cells

Row | Compound | induction of phenotypic reversion [1] | type of inhibition of mammalian histone deacetylase [2] | cell differentiating activity [3] | anti-trichomonal activity (trichomonal) | inhibition of partially purified yeast histone deacetylase [4] | morphological reversion [5]
1 | CC(/C=C/C(=O)NO)=C\[C@@H](C)C(=O)c1ccc(N(C)C)cc1 [trichostatin A] | ability to induce phenotypic reversion | reversible | cell differentiating activity | anti-trichomonal activity | inhibit | 
2 | trapoxin A |  | irreversible |  |  |  | induces morphological reversion
